Read-outs that look alike come from different tables or passages of the source.
Legend:
Format in all cases: cell-based
[1] = system: A549; experiment: Cancer cell viability, A549 (CellTiter-Glo); conditions: Homo sapiens, 72 h, A549 cells, 3 days, read-out: Cellular IC50 (μM) A549
How it was run: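 A549 and/or LK-2 lung carcinoma cells seeded overnight (20 K/mL A549; 35 K/mL LK-2), then exposed to compound for 3 days. Viability read as CellTiter-Glo luminescence after 15 min lysis; data fitted to curves.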

[2] = system: LK-2; experiment: Cancer cell viability, LK-2 (CellTiter-Glo); conditions: LK-2 cells, 3 days, read-out: Cellular IC50 (μM) LK-2
Procedure: Representative Compounds of the Disclosure were tested in A549 (Vendor: ATCC; Cat #CCL-185; Description: lung, carcinoma) and/or LK-2 (Vendor: Riken; Cat #RCB1970; Description: lung, squamous cell carcinoma) cellular viability assays according to the following general protocol. • 1. Observed the cells under microscope. • 2. Aspirated the media and added 5 mL trypsin and incubate for 3 mins. • 3. Added 10 mL fresh media and harvested all the cells in to 15 mL tubes. • 4. Centrifuged the cells at 1000 rpm for 5 mins. • 5. Re-suspended the cells with 11 mL media and took 1 mL to determine the cell number and viability. • 6. Prepared cells suspension at 20 K/mL (A549) or 35 K/mL (LK-2) • 7. Seeded the cells into 96-well plate and incubated for overnight. • 8. Added compounds into each well with a HPD300 machine (nine three-fold dilutions typically starting at 30 µM final concentration) and incubated for 3 days. • 9. After 3 days, took out the plates from the incubator and observed the cells under microscope. • 10. Passed a film at the bottom of the plates. • 11. Equilibrated the plate and its contents at room temperature for approximately 30 minutes. • 12. Thawed the CellTiter-Glo® Buffer and equilibrated to room temperature prior to use. • 13. Equilibrated the lyophilized CellTiter-Glo® Substrate to room temperature prior to use. • 14. Transferred 100 ml of CellTiter-Glo® Buffer into the amber bottle containing CellTiter-Glo® Substrate to reconstituted the lyophilized enzyme/substrate mixture. • 15. Mixed by gently vortexing, swirling or inverting the contents to obtain a homogeneous solution. • 16. Added 100 μL CellTiter-Glo® Reagent into each well • 17. Mixed contents for 15 minutes on an orbital shaker to induce cell lysis. • 18. Recorded luminescence with EnSpire machine. • 19. Passed the raw data into the file and analyzed the data with XLfit software.

[3] = biological target: T1, Nrf2 (Homo sapiens, UniProt Q16236); experiment: Nrf2 degradation in A549 HiBiT-Nrf2 cells, Nano-Glo HiBiT lytic detection (HiBiT readout); set-up: host or cells: A549 HiBiT-Nrf2 cells (engineered line bought from Promega)
T1 sequence (Q16236 1-605): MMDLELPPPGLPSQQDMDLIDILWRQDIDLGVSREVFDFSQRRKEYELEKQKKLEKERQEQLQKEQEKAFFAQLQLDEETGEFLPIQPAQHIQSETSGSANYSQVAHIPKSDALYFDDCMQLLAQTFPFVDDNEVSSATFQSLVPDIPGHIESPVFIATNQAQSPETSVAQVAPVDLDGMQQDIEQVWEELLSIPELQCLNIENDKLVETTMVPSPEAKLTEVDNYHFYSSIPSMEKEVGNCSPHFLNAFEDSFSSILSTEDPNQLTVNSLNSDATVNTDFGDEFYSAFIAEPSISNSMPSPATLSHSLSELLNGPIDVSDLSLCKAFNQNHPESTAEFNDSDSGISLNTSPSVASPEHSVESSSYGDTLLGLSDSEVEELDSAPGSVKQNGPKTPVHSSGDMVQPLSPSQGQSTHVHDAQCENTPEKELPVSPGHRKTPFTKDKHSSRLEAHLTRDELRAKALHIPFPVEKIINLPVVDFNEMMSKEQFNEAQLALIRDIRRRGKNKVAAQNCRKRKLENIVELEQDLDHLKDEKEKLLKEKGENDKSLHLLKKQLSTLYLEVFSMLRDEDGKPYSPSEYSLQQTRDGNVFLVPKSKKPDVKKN
Procedure: A549 HiBiT-Nrf2 cells (Promega, Cat. No. CS3023219) were seeded into 384-well plates at cell density of 5,000 cells/well in 40 μL of cell culture medium (Ham's F-12 Nutrient Mix supplemented with 10% FBS and 1% antibiotic-antimycotic).
The next day, cells were treated with representative Compounds of the Disclosure and incubated for 6 h and 20 h at 37° C., 5% CO2. Staurosporine was used as a control.
At the end of incubation Nrf2 degradation (HiBiT readout) and cell viability (CellTiter-Glo readout) were determined. For HiBiT readout, Nano-Glo HiBiT Reagent mix (Promega, Cat. No. N3050) was added to wells, plates were incubated 2 min on an orbital shaker and incubated at room temperature in the dark for additional 30 minutes. At the end of incubation luminescence was measured using ultrasensitive luminescence mode (Envision, Perkin Elmer).

[4] = 6 h, read-out: DC50 (nM) at 6 h
[5] = 20 h, read-out: DC50 (nM) at 20 h

Cc1sc(NC(=O)Cc2ccc(F)c(OCCOCCNc3ccc4c(c3)CN(C3CCC(=O)NC3=O)C4=O)c2)nc1-c1ccc2c(c1)CCN2C(=O)C1CC1 (centres unmarked) [Cpd. No. 28, N-(4-(1-(cyclopropanecarbonyl)indolin-5-yl)-5-methylthiazol-2-yl)-2-(3-(2-(2-((2-(2,6-dioxopiperidin-3-yl)-1-oxoisoindolin-5-yl)amino)ethoxy)ethoxy)-4-fluorophenyl)acetamide]
IC50 [1]: 0.03 µM
IC50 ([2]; Homo sapiens, LK-2, 72 h): 0.01 µM
DC50 [3, 4]: < 300 nM
DC50 [3, 5]: < 300 nM

Cc1sc(NC(=O)Cc2cccc(OCCCCCNc3cccc4c3C(=O)N(C3CCC(=O)NC3=O)C4=O)c2)nc1-c1ccc2c(c1)CCN2C(=O)C1CC1 (centres unmarked) [Cpd. No. 40, N-(4-(1-(cyclopropanecarbonyl)indolin-5-yl)-5-methylthiazol-2-yl)-2-(3-((5-((2-(2,6-dioxopiperidin-3-yl)-1,3-dioxoisoindolin-4-yl)amino)pentyl)oxy)phenyl)acetamide]
IC50 [1]: 0.11 µM
IC50 ([2]; Homo sapiens, LK-2, 72 h): 0.08 µM
DC50 [3, 4]: < 300 nM
DC50 [3, 5]: < 300 nM

Cc1sc(NC(=O)Cc2ccc(F)c(OCCOCCNc3ccc4c(c3)C(=O)N(C3CCC(=O)NC3=O)C4=O)c2)nc1-c1ccc2c(c1)CCN2C(=O)C1CC1 (centres unmarked) [Cpd. No. 27, N-(4-(1-(cyclopropanecarbonyl)indolin-5-yl)-5-methylthiazol-2-yl)-2-(3-(2-(2-((2-(2,6-dioxopiperidin-3-yl)-1,3-dioxoisoindolin-5-yl)amino)ethoxy)ethoxy)-4-fluorophenyl)acetamide]
IC50 [1]: 0.08 µM
IC50 ([2]; Homo sapiens, LK-2, 72 h): 0.03 µM
DC50 [3, 4]: < 300 nM
DC50 [3, 5]: < 300 nM

Cc1ccccc1C(=O)N1CCc2cc(-c3nc(NC(=O)Cc4cccc(OCCOCCNc5ccc6c(c5)C(=O)N(C5CCC(=O)NC5=O)C6=O)c4)sc3C)ccc21 (centres unmarked) [Cpd. No. 20, 2-(3-(2-(2-((2-(2,6-dioxopiperidin-3-yl)-1,3-dioxoisoindolin-5-yl)amino)ethoxy)ethoxy)phenyl)-N-(5-methyl-4-(1-(2-methylbenzoyl)indolin-5-yl)thiazol-2-yl)acetamide]
IC50 [1]: 0.3 µM
IC50 ([2]; Homo sapiens, LK-2, 72 h): 0.06 µM
DC50 [3, 4]: 300 to 3000 nM
DC50 [3, 5]: 300 to 3000 nM

Cc1sc(NC(=O)Cc2cccc(OCCOCCNc3cccc4c3C(=O)N(C3CCC(=O)NC3=O)C4=O)c2)nc1-c1ccc2c(c1)CCN2C(=O)c1cncn1C (centres unmarked) [Cpd. No. 35, 2-(3-(2-(2-((2-(2,6-dioxopiperidin-3-yl)-1,3-dioxoisoindolin-4-yl)amino)ethoxy)ethoxy)phenyl)-N-(5-methyl-4-(1-(1-methyl-1H-imidazole-5-carbonyl)indolin-5-yl)thiazol-2-yl)acetamide]
IC50 [1]: 0.03 µM
IC50 ([2]; Homo sapiens, LK-2, 72 h): 0.01 µM
DC50 [3, 4]: < 300 nM
DC50 [3, 5]: > 3000 nM

Cc1sc(NC(=O)Cc2ccc(F)c(OCCOCCNc3ccc4c(c3)C(=O)N(C3CCC(=O)NC3=O)C4=O)c2)nc1-c1ccc2c(c1)CCN2C(=O)c1cncn1C (centres unmarked) [Cpd. No. 29, 2-(3-(2-(2-((2-(2,6-dioxopiperidin-3-yl)-1,3-dioxoisoindolin-5-yl)amino)ethoxy)ethoxy)-4-fluorophenyl)-N-(5-methyl-4-(1-(1-methyl-1H-imidazole-5-carbonyl)indolin-5-yl)thiazol-2-yl)acetamide]
IC50 [1]: 0.05 µM
IC50 ([2]; Homo sapiens, LK-2, 72 h): 0.01 µM
IC50 [2]: 0.02 µM
DC50 [3, 4]: < 300 nM
DC50 [3, 5]: < 300 nM

Cc1sc(NC(=O)Cc2ccc(F)c(OCCOCCNc3cccc4c3C(=O)N(C3CCC(=O)NC3=O)C4=O)c2)nc1-c1ccc2c(c1)CCN2C(=O)c1cncn1C (centres unmarked) [Cpd. No. 37, 2-(3-(2-(2-((2-(2,6-dioxopiperidin-3-yl)-1,3-dioxoisoindolin-4-yl)amino)ethoxy)ethoxy)-4-fluorophenyl)-N-(5-methyl-4-(1-(1-methyl-1H-imidazole-5-carbonyl)indolin-5-yl)thiazol-2-yl)acetamide]
IC50 [1]: 0.04 µM
IC50 ([2]; Homo sapiens, LK-2, 72 h): 0.01 µM
DC50 [3, 4]: < 300 nM
DC50 [3, 5]: < 300 nM

Cc1ccccc1C(=O)N1CCc2cc(-c3nc(NC(=O)Cc4cccc(OCCN5CCN(c6cccc7c6C(=O)N(C6CCC(=O)NC6=O)C7=O)CC5)c4)sc3C)ccc21 (centres unmarked) [Cpd. No. 31, 2-(3-(2-(4-(2-(2,6-dioxopiperidin-3-yl)-1,3-dioxoisoindolin-4-yl)piperazin-1-yl)ethoxy)phenyl)-N-(5-methyl-4-(1-(2-methylbenzoyl)indolin-5-yl)thiazol-2-yl)acetamide]
IC50 [1]: > 30 µM
IC50 ([2]; Homo sapiens, LK-2, 72 h): > 30 µM
DC50 [3, 4]: > 3000 nM
DC50 [3, 5]: > 3000 nM

Cc1sc(NC(=O)Cc2ccc(F)c(OCCOCCNc3cccc4c3C(=O)N(C3CCC(=O)NC3=O)C4=O)c2)nc1-c1ccc2c(c1)CCN2C(=O)C1CC1 (centres unmarked) [Cpd. No. 36, N-(4-(1-(cyclopropanecarbonyl)indolin-5-yl)-5-methylthiazol-2-yl)-2-(3-(2-(2-((2-(2,6-dioxopiperidin-3-yl)-1,3-dioxoisoindolin-4-yl)amino)ethoxy)ethoxy)-4-fluorophenyl)acetamide]
IC50 [1]: 0.06 µM
IC50 ([2]; Homo sapiens, LK-2, 72 h): 0.03 µM
DC50 [3, 4]: < 300 nM
DC50 [3, 5]: < 300 nM

Cc1ccccc1C(=O)N1CCc2cc(-c3nc(NC(=O)Cc4cccc(OCCOCCOc5ccc6c(c5)C(=O)N(C5CCC(=O)NC5=O)C6=O)c4)sc3C)ccc21 (centres unmarked) [Cpd. No. 18, 2-(3-(2-(2-((2-(2,6-dioxopiperidin-3-yl)-1,3-dioxoisoindolin-5-yl)oxy)ethoxy)ethoxy)phenyl)-N-(5-methyl-4-(1-(2-methylbenzoyl)indolin-5-yl)thiazol-2-yl)acetamide]
IC50 [1]: 0.1 µM
IC50 ([2]; Homo sapiens, LK-2, 72 h): 0.04 µM
DC50 [3, 4]: 300 to 3000 nM
DC50 [3, 5]: > 3000 nM
